Results on 17 compounds are retold here after US20230142338A1, “THIOPHENYL DERIVATIVES USEFUL FOR MODULATING NUCLEIC ACID SPLICING” (REMIX THERAPEUTICS INC., priority 2020, published 2023).

What all share (assay type): cell-based
The test system of assay [1] is HTT CJ mRNA. Briefly: Splicing assay (RT-qPCR): decrease in HTT canonical junction (CJ) mRNA. As to conditions: A673 or K562 cells, 24 hours treatment; concentration having 50% response in CJ mRNA decrease. An outline of the steps:
(§1)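 A673 (DMEM/10% FBS) or K562 (IMDM/10% FBS) cells treated 24 h at 37 °C with 11-point 3-fold dilutions, top final 10 uM, DMSO ≤0.25%. Lysates taken directly to RT-qPCR for HTT CJ and AJ isoforms, normalized to GAPDH, GUSB or PPIA. ΔΔCt vs DMSO control converted to RQ (2^−ΔΔCt), then percentage response.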

The test system of a further assay is Target C CJ mRNA. Briefly: Gene panel canonical junction qPCR assay: Target C. As to conditions: Table 3, concentration having 50% response in CJ decrease, read-out: Target C IC50 (decrease in CJ mRNA levels). An outline of the steps:
(§2)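 A673 or K562 cells were treated 24 h at 37 °C with an 11-point 3-fold dilution series (top 10 uM; ≤0.25% DMSO). Canonical-junction mRNA was then measured in lysates by one-step RT-qPCR. Values were normalized to a housekeeping gene (GAPDH, GUSB or PPIA) and to the DMSO control via 2^(−ΔΔCt).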

A further assay concerns SMN2 CJ mRNA. Briefly: Gene panel canonical junction qPCR assay: SMN2. The note with it: Table 3, concentration having 50% response in CJ decrease, read-out: SMN2 IC50 (decrease in CJ mRNA levels). In outline: as §2
The test system of another assay is HTT AJ mRNA. The assay is described as follows: Splicing assay (RT-qPCR): increase in HTT alternative junction (AJ) mRNA. The note with it: A673 or K562 cells, 24 hours treatment; concentration having 50% response in AJ mRNA increase. An outline of the steps:
as §1

Assay [2] concerns HTT CJ mRNA. Briefly: Gene panel canonical junction qPCR assay: HTT. The note with it: Table 3, concentration having 50% response in CJ decrease, read-out: HTT IC50 (decrease in CJ mRNA levels). In outline: as §2

SMILES strings stand for the structures. pIC50: −log10 of the molar value.

Take `Cc1cn2cc(NC(=O)c3sc(C4CCNCC4)cc3F)ncc2n1` [Compound 179, 3-fluoro-N-[2-methylimidazo[1,2-a]pyrazin-6-yl]-5-(piperidin-4-yl)thiophene-2-carboxamide]: the concentration at half-maximal activity (AC50) was 100 to 1000 nM with HTT CJ mRNA [1] and 1000 to 10000 nM in the assay on HTT AJ mRNA. Moreover, the pIC50 with Target C CJ mRNA was 5.00 to 6.00; with SMN2 CJ mRNA, 5.00 to 6.00; in the assay with HTT CJ mRNA [2] it was 6.00 to 7.00.
Consider `Cc1cn2cc(NC(=O)c3sc(C4CCNCC4)cc3F)cc(C)c2n1` [Compound 180, N-[2,8-dimethylimidazo[1,2-a]pyridin-6-yl]-3-fluoro-5-(piperidin-4-yl)thiophene-2-carboxamide], for which the half-maximal activity concentration (AC50) fell in the range of 100 to 1000 nM in the assay on HTT CJ mRNA [1] and 1000 to 10000 nM with HTT AJ mRNA. Also, the negative-log IC50 (pIC50) is 5.00 to 6.00 in the assay with Target C CJ mRNA, above 7.00 with SMN2 CJ mRNA and 6.00 to 7.00 in the assay on HTT CJ mRNA [2].
Turning to `Cc1cn2cc(NC(=O)c3sc(C4CCNCC4)cc3F)cc(Cl)c2n1` [Compound 181, N-[8-chloro-2-methylimidazo[1,2-a]pyridin-6-yl]-3-fluoro-5-(piperidin-4-yl)thiophene-2-carboxamide], the half-maximal activity concentration (AC50) with HTT CJ mRNA [1] and in the assay on HTT AJ mRNA was 100 to 1000 nM throughout. Moreover, the figures for the negative-log IC50 (pIC50) in the assay on Target C CJ mRNA, with SMN2 CJ mRNA and with HTT CJ mRNA [2] were 5.00 to 6.00, above 7.00 and 6.00 to 7.00, respectively.
In the case of `Cn1cc2ccc(NC(=O)c3sc(C4CCNCC4)cc3F)cc2n1` [Compound 182, 3-fluoro-N-(2-methylindazol-6-yl)-5-(piperidin-4-yl)thiophene-2-carboxamide], the AC50 with HTT CJ mRNA [1] and with HTT AJ mRNA was above 10000 nM in each case. The pIC50 with Target C CJ mRNA, with SMN2 CJ mRNA and in the assay with HTT CJ mRNA [2] was below 8.00 each time.
As to `Cn1cc2c(F)cc(NC(=O)c3sc(C4CCNCC4)cc3F)cc2n1` [Compound 183, 3-fluoro-N-(4-fluoro-2-methylindazol-6-yl)-5-(piperidin-4-yl)thiophene-2-carboxamide], the AC50 in the assay with HTT CJ mRNA [1] and in the assay on HTT AJ mRNA was above 10000 nM throughout. In addition, the pIC50 in the assay with Target C CJ mRNA, in the assay on SMN2 CJ mRNA and in the assay on HTT CJ mRNA [2] was below 8.00 throughout.
With `Cc1nc2c(F)cc(NC(=O)c3sc(C4CCNCC4)cc3F)cc2o1` [Compound 184, 3-fluoro-N-(4-fluoro-2-methyl-1,3-benzoxazol-6-yl)-5-(piperidin-4-yl)thiophene-2-carboxamide], the AC50 with HTT CJ mRNA [1] and in the assay with HTT AJ mRNA was 100 to 1000 nM in each case. Moreover, the values for the negative logarithm of the IC50 (pIC50) with Target C CJ mRNA, in the assay on SMN2 CJ mRNA and with HTT CJ mRNA [2] were 6.00 to 7.00, above 7.00 and 6.00 to 7.00, respectively.
As for `Cc1nc2c(F)cc(NC(=O)c3sc(C4CCNCC4)cc3F)cc2s1` [Compound 185, 3-fluoro-N-(4-fluoro-2-methyl-1,3-benzothiazol-6-yl)-5-(piperidin-4-yl)-thiophene-2-carboxamide], the AC50 in the assay with HTT CJ mRNA [1] fell in the range of 100 to 1000 nM; in the assay on HTT AJ mRNA, 1000 to 10000 nM. In addition, the values for the negative-log IC50 (pIC50) in the assay with Target C CJ mRNA, in the assay on SMN2 CJ mRNA and in the assay with HTT CJ mRNA [2] were 5.00 to 6.00, above 7.00 and 6.00 to 7.00, respectively.
On the same counts, the results for `Cc1cn2cc(NC(=O)c3cc(Cl)c(N4CCNC(C)C4)s3)cc(F)c2n1` (stereo not shown) [Compound 187] are above 10000 nM, above 10000 nM, below 8.00, below 8.00 and below 8.00.
On the same counts, the results for `Cc1cn2cc(NC(=O)c3cc(F)c(C4CCNCC4)s3)cc(F)c2n1` [Compound 188, 4-fluoro-N-[8-fluoro-2-methylimidazo[1,2-a]pyridin-6-yl]-5-(piperidin-4-yl)thiophene-2-carboxamide] are 100 to 1000 nM, above 10000 nM, below 8.00, 6.00 to 7.00 and 6.00 to 7.00.
As to `COc1cc(N2CCNCC2=O)sc1C(=O)Nc1cc(F)c2nc(C)cn2c1` [Compound 189, N-[8-fluoro-2-methylimidazo[1,2-a]pyridin-6-yl]-3-methoxy-5-(2-oxopiperazin-1-yl)thiophene-2-carboxamide], the concentration at half-maximal activity (AC50) in the assay with HTT CJ mRNA [1] and in the assay with HTT AJ mRNA was above 10000 nM in each case. The pIC50 in the assay on Target C CJ mRNA, in the assay on SMN2 CJ mRNA and with HTT CJ mRNA [2] was below 8.00 in each case.
Regarding `Cc1cn2cc(NC(=O)c3sc(C4CCNCC4)cc3Cl)cc(F)c2n1` [Compound 190, 3-chloro-N-[8-fluoro-2-methylimidazo[1,2-a]pyridin-6-yl]-5-(piperidin-4-yl) thiophene-2-carboxamide], the half-maximal activity concentration (AC50) in the assay on HTT CJ mRNA [1] was below 100 nM; in the assay on HTT AJ mRNA, 100 to 1000 nM. Further, the results for the pIC50 in the assay with Target C CJ mRNA, in the assay on SMN2 CJ mRNA and in the assay on HTT CJ mRNA [2] were 5.00 to 6.00, above 7.00 and above 7.00, respectively.
For the compound `Cc1cn2nc(NC(=O)c3sc(C4CCNCC4)cc3F)cc2c(C)n1` [Compound 191, N-[4,6-dimethylpyrazolo[1,5-a]pyrazin-2-yl]-3-fluoro-5-(piperidin-4-yl)thiophene-2-carboxamide], the AC50 in the assay with HTT CJ mRNA [1] and with HTT AJ mRNA was 1000 to 10000 nM each time. In addition, the pIC50 in the assay on Target C CJ mRNA is 5.00 to 6.00; with SMN2 CJ mRNA, 6.00 to 7.00; in the assay on HTT CJ mRNA [2], 5.00 to 6.00.
As for `Cc1cn2nc(NC(=O)c3sc(C4CCNCC4)cc3F)nc2c(C)n1` [Compound 192, N-[6,8-dimethyl-[1,2,4]triazolo[1,5-a]pyrazin-2-yl]-3-fluoro-5-(piperidin-4-yl)thiophene-2-carboxamide], the half-maximal activity concentration (AC50) with HTT CJ mRNA [1] and with HTT AJ mRNA was above 10000 nM throughout. Moreover, the pIC50 in the assay with Target C CJ mRNA, in the assay with SMN2 CJ mRNA and with HTT CJ mRNA [2] was below 8.00 each time.
Consider `Cc1cn2cc(NC(=O)c3cc(Cl)c(C4CCNCC4)s3)cc(F)c2n1` [Compound 193, 4-chloro-N-[8-fluoro-2-methylimidazo[1,2-a]pyridin-6-yl]-5-(piperidin-4-yl) thiophene-2-carboxamide], for which the half-maximal activity concentration (AC50) in the assay with HTT CJ mRNA [1] and with HTT AJ mRNA was above 10000 nM in each case. In addition, the negative-log IC50 (pIC50) with Target C CJ mRNA was below 8.00; with SMN2 CJ mRNA it was 5.00 to 6.00; in the assay with HTT CJ mRNA [2] it was below 8.00.
On to `Cc1cn2cc(NC(=O)c3sc(C4CCNCC4)cc3F)nc2c(C)n1` [Compound 195, N-[6,8-dimethylimidazo[1,2-a]pyrazin-2-yl]-3-fluoro-5-(piperidin-4-yl)thiophene-2-carboxamide], for which the AC50 in the assay with HTT CJ mRNA [1] fell in the range of 100 to 1000 nM; in the assay with HTT AJ mRNA, 1000 to 10000 nM. Moreover, the negative logarithm of the IC50 (pIC50) is below 8.00 in the assay on Target C CJ mRNA, above 7.00 in the assay on SMN2 CJ mRNA and 6.00 to 7.00 in the assay on HTT CJ mRNA [2].
Consider `Cc1cn2cc(NC(=O)c3sc([C@@H]4CCN[C@H](C)C4)cc3F)cc(C(F)(F)F)c2n1` [Compound 196, 3-fluoro-N-[2-methyl-8-(trifluoromethyl)imidazo[1,2-a]pyridin-6-yl]-5-[(cis-)-2-methylpiperidin-4-yl]thiophene-2-carboxamide], for which the half-maximal activity concentration (AC50) with HTT CJ mRNA [1] was 1000 to 10000 nM; in the assay on HTT AJ mRNA it was above 10000 nM. In addition, the pIC50 was below 8.00 in the assay on Target C CJ mRNA, 6.00 to 7.00 in the assay with SMN2 CJ mRNA and 5.00 to 6.00 with HTT CJ mRNA [2].
Turning to `Cc1cn2cc(NC(=O)c3sc([C@H]4CCN[C@H](C)C4)cc3F)cc(C(F)(F)F)c2n1` [Compound 197, 3-fluoro-N-[2-methyl-8-(trifluoromethyl)imidazo[1,2-a]pyridin-6-yl]-5-[(trans-)-2-methylpiperidin-4-yl]thiophene-2-carboxamide], the concentration at half-maximal activity (AC50) in the assay on HTT CJ mRNA [1] and in the assay on HTT AJ mRNA was 1000 to 10000 nM throughout. Moreover, the negative logarithm of the IC50 (pIC50) is below 8.00 with Target C CJ mRNA, 6.00 to 7.00 in the assay on SMN2 CJ mRNA and 5.00 to 6.00 in the assay with HTT CJ mRNA [2].
